Data as given in the supplement of paper PMC10307832.

Legend:
Assay in all cases: relative viability (nuclei count vs DMSO), 5 days (fraction); higher = more cells survive
Motesanib + Pemetrexed = compound: CC1(C)CNc2cc(NC(=O)c3cccnc3NCc3ccncc3)ccc21 [Motesanib] + Nc1nc2[nH]cc(CCc3ccc(C(=O)N[C@@H](CCC(=O)O)C(=O)O)cc3)c2c(=O)[nH]1 [Pemetrexed] (partner 0.2 µM)
How it was run: (§1)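 Cells from lung cancer lines were seeded into 1536-well plates and, one day later, dosed by pin tool. Treatments were either a single drug or a fixed dose of an anchor drug with five library-drug doses (not always all listed) in √10 steps. After 5 days, nuclei were stained in a one-step fixation (final 0.05% Triton X-100, 1% formaldehyde, 1 ug/ml Hoechst) and counted on 4× images, and relative viability is the treated-to-vehicle nuclei ratio, as the median of duplicate plates.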

Motesanib + Navitoclax = compound: CC1(C)CNc2cc(NC(=O)c3cccnc3NCc3ccncc3)ccc21 [Motesanib] + CC1(C)CCC(c2ccc(Cl)cc2)=C(CN2CCN(c3ccc(C(=O)NS(=O)(=O)c4ccc(N[C@H](CCN5CCOCC5)CSc5ccccc5)c(S(=O)(=O)C(F)(F)F)c4)cc3)CC2)C1 [Navitoclax] (partner 0.5 µM)
How it was run: as §1

[1] = compound: C[C@@]1(C(=O)Nc2ccc(F)nc2)CCCN1c1nc(Nc2cc(C3CC3)n[nH]2)c2cccn2n1 + N=C(N)NC(=N)NCCc1ccccc1 [Phenformin] (partner 250 µM)
How it was run: as §1

Motesanib + Bortezomib = compound: CC1(C)CNc2cc(NC(=O)c3cccnc3NCc3ccncc3)ccc21 [Motesanib] + CC(C)C[C@H](NC(=O)[C@H](Cc1ccccc1)NC(=O)c1cnccn1)B(O)O [Bortezomib] (partner 0.002 µM)
How it was run: as §1

Cell Line	relative viability (Motesanib + Pemetrexed; first compound 0.01 µM)	relative viability (Motesanib + Pemetrexed; first compound 0.03162 µM)	relative viability (Motesanib + Pemetrexed; first compound 0.1 µM)	relative viability (Motesanib + Pemetrexed; first compound 0.3162 µM)	relative viability (Motesanib + Pemetrexed; first compound 1 µM)	relative viability (Motesanib + Navitoclax; first compound 0.01 µM)	relative viability (Motesanib + Navitoclax; first compound 0.03162 µM)	relative viability (Motesanib + Navitoclax; first compound 0.1 µM)	relative viability (Motesanib + Navitoclax; first compound 0.3162 µM)	relative viability (Motesanib + Navitoclax; first compound 1 µM)	relative viability ([1]; first compound 0.04 µM)	relative viability ([1]; first compound 0.1265 µM)	relative viability ([1]; first compound 0.4 µM)	relative viability ([1]; first compound 1.265 µM)	relative viability (Motesanib + Bortezomib; first compound 0.01 µM)	relative viability (Motesanib + Bortezomib; first compound 0.03162 µM)	relative viability (Motesanib + Bortezomib; first compound 0.1 µM)	relative viability (Motesanib + Bortezomib; first compound 0.3162 µM)	relative viability (Motesanib + Bortezomib; first compound 1 µM)
NCI-H2085	0.895	0.969	0.852	0.851	0.892	1.2	1.29	1.21	1.13	1.12	0.815	0.631	0.607	0.416	1.14	1.12	0.977	1.09	1.14
NCI-H2087			0.657	0.73	0.605	0.92	1.14	0.997	0.902	1.03	0.437	0.342	0.313	0.237	0.796	0.781	0.885	0.76	0.704
NCI-H2126	0.683	0.715	0.615	0.695	0.655	0.821	0.84	0.874	0.878	0.813	0.459	0.293	0.314	0.293	1.07	1.17	1.11	1.17	1.12
NCI-H2228	0.366	0.292	0.254	0.191	0.241	1.13	0.913	0.632	1.04	1.12	0.223	0.196	0.171	0.232	0.957	1.13	0.881	1.28	1.01
NCI-H2347	0.396	0.406	0.387	0.447	0.364	0.816	0.751	0.712	0.882	1.02	0.368	0.495	0.312	0.41	1.08	0.574	1.08	0.799	1.05
NCI-H2405	1.05	1.11	1.02	1.11	1.02		0.863	0.856	0.892	0.965	0.351	0.273	0.226	0.276	0.907	0.925	0.96	0.998	1.04
NCI-H3122	0.186	0.191	0.184	0.202	0.219	0.937	1.04	0.981	1.06	1.04	0.411	0.373	0.387	0.575	1.04	0.967	1.04	1.12	1.01
PC-3 [JPC-3]	1.02	1.04	1.04	1.03	0.974	0.83	0.883	0.802	0.779	0.827	0.504	0.467	0.456	0.476	0.921	0.802	0.879	0.922	0.968
PC-14	0.131	0.126	0.132	0.128	0.13	1.03	1.06	1	1.06	1.05	0.708		0.517	0.523	0.87	0.975	0.95	0.81	1.06
